Data reported in US20070225363A1, “Methods and Agents for Inhibiting Dynamin-Dependent Endocytosis” (the University of Newcastle Research Associates Ltd., priority 2003, published 2007).
“Also recorded” adds a separate entry of the source.

Columns and labels:
[1] = test system: Swiss 3T3 cells; test: Texas Red-transferrin uptake in Swiss 3T3 cells; assay type: cell-based; details: drug added 15 or 60 minutes before Tf-TxR
Protocol: (§1) Transferrin (Tf) uptake was analysed in Swiss 3T3 and HER14 cells based on methods previously described (van der Bliek et al., 1993). Briefly, cells were plated to 60% confluency in DMEM medium plus 10% foetal calf serum after which the cells were incubated overnight (8-10 hours) in DMEM minus foetal calf serum. Texas red-transferrin (Tf-TxR, Molecular Probes, Oregon) was added to a final concentration of 5 μg/ml and the cells incubated at 37° C. for 10 minutes. Cell surface staining was removed by incubating the cells in an ice cold acid wash solution (0.2 M acetic acid +0.5 M NaCl, pH 2.8) for 15 minutes. Cells were immediately fixed with 4% paraformaldehyde for 10 minutes then washed 3 times with PBS. Nuclei were stained using DAPI (Molecular Probes, Oregon). Slides were mounted using DABCO and the fluorescence was monitored using a Leica DMLB bright field microscope and SPOT digital camera.

[2] = test system: isolated rat brain nerve terminals (synaptosomes); test: Electron microscopy of synaptosomes; assay type: cell-based; details: 100 μM
Protocol: Synaptosomes were incubated for 5 min in Krebs-like solution containing 1.2 mM Ca^2+ then stimulated with 30 mM KCl for 2 minutes. […] After stimulation, synaptosomes were pelleted in a microfuge for 1 minute at room temperature then fixed by gentle resuspension in ice-cold phosphate buffered saline supplemented with 5% glutaraldehyde. After 1 hr they were centrifuged at low speed (2500 rpm) for 5 min at room temperature to loosely pellet the synaptosomes. The pellets were washed gently 3 times with MOPs buffer with low spins (2500 rpm) for 7 minutes then gently resuspended in a 10% bourine serum albumin (BSA) in water and allowed to stand for 20 min at room temperature. The synaptosomes were then centrifuged again for 7 minutes at low speed (2500 rpm), overlaid with Karnovsky's fixative and incubated at 4° C. overnight. The pellets were subsequently rinsed and fixed in a buffered solution of osmium tetroxide for 3 hours. Synaptosomes were then rinsed and stained for 1 hour in 2% aqueous uranyl acetate prior to being dried by a series of sequential 10 minute washes: 50% ethanol plus 0.1% NaCl, 70% ethanol plus 0.1% NaCl, 95% ethanol plus 0.1% NaCl, 100% ethanol plus 0.1% NaCl twice and 100% acetone twice. […]

[3] = test system: isolated nerve terminals (synaptosomes); test: Glutamate release assay (exocytosis) in synaptosomes; assay type: cell-based, rat; details: 30 mM KCl
Protocol: The glutamate release assay was performed using enzyme-linked fluorescent detection of released glutamate (Cousin and Robinson., 2000a, b). Briefly, synaptosomes (0.6 mg in 2 ml) were resuspended in either plus (1.2 mM CaCl2) or minus (1 mM EGTA) Ca^2+ Krebs-like solution (118.5 mM NaCl, 4.7 mM KCl, 1.18 mM MgCl2, 0.1 mM Na2HPO4, 20 mM Hepes, 10 mM glucose, pH 7.4) at 37° C. Experiments were started after addition of 1 mM NADP^+. After 1 minute 50 U of glutamate dehydrogenase was added and the synaptosome suspension was stimulated after 4 minutes with 30 mM KCl. Increases in fluorescence due to production of NADPH were monitored in a Perkin-Elmer LS-50B spectrofluorimeter at 340 nm excitation and 460 nm emission. Experiments were standardised by the addition of 4 nmol of glutamate. Data is presented as Ca^2+-dependent glutamate release, calculated as the difference between release in plus and minus Ca^2+ solution for identical stimulation conditions.

[4] = test system: isolated nerve terminals (synaptosomes); test: Synaptic vesicle endocytosis, FM2-10 uptake in synaptosomes; assay type: cell-based, rat; details: 100 μM, synaptosomes
Protocol: Isolated nerve terminals (synaptosomes) were prepared from rat cerebral cortex by centrifugation on discontinuous percoll gradients (Dunkley et al., 1986). Fractions 3 and 4 were pooled and used in all experiments. Endocytosis was measured using uptake of the fluorescent dye FM2-10 as previously described (Cousin and Robinson 2000a). Synaptosomes (0.6 mg in 2 ml) were incubated for 5 min at 37° C. in plus or minus Ca^2+ Krebs-like solution. FM2-10 ([…]) was added 1 min before stimulation with 30 mM KCl (S1). As FM2-10 is taken up by vesicles via endocytosis at the S1 phase of stimulation, synaptosomes were incubated with antagonists during this phase. […] After 2 min of stimulation synaptosomes were washed twice in plus Ca^2+ solution containing 1 mg/ml bovine serum albumin. The washing steps remove non-internalised FM2-10 and the tyrphostins. Washed synaptosomes were resuspended in plus Ca^2+ solution at 37° C., transferred to a fluorimeter cuvette and stimulated with a standard addition of 30 mM KCl (S2). The standard S2 stimulation releases all accumulated FM2-10 and allows endocytosis to be measured as the decrease in FM2-10 fluorescence due to dye release into solution (excitation 488 nm, emission 540 nm).
Endocytosis was calculated as the decrease in absolute fluorescence stimulated by 30 mM KCl at S2. […] Retrieval efficiency is a more accurate measure of endocytosis since it takes into account the amount of prior exocytosis. Retrieval efficiency was calculated as endocytosis/exocytosis, where endocytosis is defined as above and exocytosis as Ca^2+-dependent glutamate release after 2 min of stimulation. The retrieval efficiency value was normalised to a ratio of 1.0 for 30 mM KCl.

[5] = test system: HER14 cells; test: Texas Red-transferrin uptake in HER14 cells; assay type: cell-based; details: drug added 15 or 60 minutes before Tf-TxR
Protocol: as §1

[6] = test system: Ras; test: [α-32P]-GTP binding to small G protein Ras; details: data not shown
Protocol: (§2) Competition of these drugs with GTP for the active site of 4 small G proteins (Rab3A, Ras, Arf2, RalA) was also tested.

[7] = molecular target: dynamin I (Ovis aries, UniProt A0ACI6NZN1); test: Phospholipid binding and helix assembly (sedimentation assay); details: 10 or 100 μM, PS liposomes
dynamin I, sequence (A0ACI6NZN1 entry or part of it): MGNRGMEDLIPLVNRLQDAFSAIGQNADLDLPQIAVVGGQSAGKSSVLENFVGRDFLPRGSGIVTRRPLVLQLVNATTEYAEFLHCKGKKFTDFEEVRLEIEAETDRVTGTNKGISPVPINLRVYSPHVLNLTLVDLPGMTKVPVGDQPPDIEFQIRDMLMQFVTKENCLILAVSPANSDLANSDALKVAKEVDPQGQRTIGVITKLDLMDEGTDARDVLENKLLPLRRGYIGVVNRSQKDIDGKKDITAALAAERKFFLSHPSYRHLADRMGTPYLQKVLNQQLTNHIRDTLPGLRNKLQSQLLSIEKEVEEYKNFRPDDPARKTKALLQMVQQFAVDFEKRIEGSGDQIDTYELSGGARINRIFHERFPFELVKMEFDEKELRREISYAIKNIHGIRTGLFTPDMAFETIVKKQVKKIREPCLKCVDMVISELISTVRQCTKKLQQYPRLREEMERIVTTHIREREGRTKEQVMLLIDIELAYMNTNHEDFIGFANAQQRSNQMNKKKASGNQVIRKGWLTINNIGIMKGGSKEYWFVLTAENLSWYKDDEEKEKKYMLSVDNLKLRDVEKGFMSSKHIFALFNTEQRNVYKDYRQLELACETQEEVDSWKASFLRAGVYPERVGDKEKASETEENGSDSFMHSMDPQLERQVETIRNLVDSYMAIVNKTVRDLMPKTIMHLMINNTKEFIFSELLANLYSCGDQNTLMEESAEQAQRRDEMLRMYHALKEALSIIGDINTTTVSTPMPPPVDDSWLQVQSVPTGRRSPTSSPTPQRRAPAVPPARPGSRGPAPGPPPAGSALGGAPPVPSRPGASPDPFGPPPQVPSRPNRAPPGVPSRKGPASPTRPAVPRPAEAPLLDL

[8] = test system: Arf2; test: [α-32P]-GTP binding to small G protein Arf2; details: data not shown
Protocol: as §2

SMILES: N#C/C(=C\c1ccc(O)c(O)c1)C(=O)NCCCNC(=O)/C(C#N)=C/c1ccc(O)c(O)c1 [bis-tyrphostin]
- internalisation of texas-red labelled transferrin into Swiss 3T3 cells [1]: very large decrease in transferrin staining; also recorded: inhibited
- morphology of depolarised synaptosomes ([2]; depolarised with KCl): massive depletion of synaptic vesicles
- morphology of unstimulated synaptosomes ([2]; unstimulated): no effect on their morphology
- exocytosis (Ca2+-dependent glutamate release) [3]: no effect
- inhibition of synaptic vesicle endocytosis (SVE) [4]: specifically decreases endocytosis
- inhibition of synaptic vesicle endocytosis (SVE) ([4]; listed as Bis-tyrphostin): significantly inhibited
- internalisation of texas-red labelled transferrin into HER14 cells [5]: very large decrease in transferrin staining; also recorded: inhibited
- effect on [α-32P]-GTP binding to Ras [6]: neither drug affected
- phospholipid binding and dynamin helix assembly [7]: completely unaffected; also recorded: does not block dynamin binding to lipid
- effect on [α-32P]-GTP binding to Arf2 [8]: neither drug affected
